Source: patent US20260256789A1, “METHODS FOR TREATMENT OF CANCER” (Frontier Medicines Corporation, priority 2022, published 2026)

Target: T1, KRAS G12C (GMPPNP-loaded) and cRAF Ras-binding domain (Homo sapiens, UniProt P01116, C118S/C51S/C80L/G12C)
T1 construct: truncated version comprising amino acids 1-169
Assay: Inhibition of KRAS G12C and cRAF binding (AlphaScreen)
Settings: KRAS G12C preloaded with GTP analogue GMPPNP, 2 hours preincubation
In short: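 AlphaScreen used biotin-AviTag KRAS G12C (Cys-light, aa 1-169; 0.5 nM), GMPPNP-loaded, preincubated 2 h with compound (top 50 μM, 1:3, 10 points, 2% DMSO) in pH 7.4 Hepes buffer with 10 μM GMPPNP. GST-cRAF RBD (aa 50-131; 0.75 nM) plus beads were then added for 60-90 min at room temperature, and IC50 came from a 4-parameter fit.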

T1 sequence (P01116 1-169 isoform P01116-2 G12C/C51S/C80L/C118S): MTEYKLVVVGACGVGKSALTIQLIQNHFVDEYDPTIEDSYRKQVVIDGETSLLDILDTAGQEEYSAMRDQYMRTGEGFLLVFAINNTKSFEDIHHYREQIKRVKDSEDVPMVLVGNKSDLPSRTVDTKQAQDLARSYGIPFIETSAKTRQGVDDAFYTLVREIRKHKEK

| SMILES | IC50 [µM] |
| --- | --- |
| Cc1noc(/C=C/C(=O)N2CC[C@@H](N(C)c3nc(OC[C@@]45CCCN4C[C@H](F)C5)nc4c(F)c(-c5nc(N)cc(C)c5C(F)(F)F)ncc34)C2)n1 [Example 55, (E)-1-((R)-3-((7-(6-amino-4-methyl-3-(trifluoromethyl)pyridin-2-yl)-8-fluoro-2-(((2R,7aS)-2-fluorotetrahydro-1H-pyrrolizin-7a(5H)-yl)methoxy)pyrido[4,3-d]pyrimidin-4-yl)(methyl)amino)pyrrolidin-1-yl)-3-(3-methyl-1,2,4-oxadiazol-5-yl)prop-2-en-1-one] | < 0.01 |
| Cc1noc(/C=C/C(=O)N2CC[C@@H](N(C)c3nc(OC[C@@]45CCCN4C[C@H](F)C5)nc4c(F)c(-c5nc(N)cc(C)c5C5CC5)ncc34)C2)n1 [Example 11, (E)-1-((R)-3-((7-(6-amino-3-cyclopropyl-4-methylpyridin-2-yl)-8-fluoro-2-(((2R,7aS)-2-fluorotetrahydro-1H-pyrrolizin-7a(5H)-yl)methoxy)pyrido[4,3-d]pyrimidin-4-yl)(methyl)amino)pyrrolidin-1-yl)-3-(3-methyl-1,2,4-oxadiazol-5-yl)prop-2-en-1-one] | < 0.01 |
| Cc1nsc(/C=C/C(=O)N2CC[C@@H](N(C)c3nc(OC[C@@]45CCCN4C[C@H](F)C5)nc4c3C[C@@H](C)[C@H](c3nc(N)cc(C)c3C(F)(F)F)C4)C2)n1 [Example 158, (E)-1-((R)-3-(((6R,7R)-7-(6-amino-4-methyl-3-(trifluoromethyl)pyridin-2-yl)-2-(((2R,7aS)-2-fluorotetrahydro-1H-pyrrolizin-7a(5H)-yl)methoxy)-6-methyl-5,6,7,8-tetrahydroquinazolin-4-yl)(methyl)amino)pyrrolidin-1-yl)-3-(3-methyl-1,2,4-thiadiazol-5-yl)prop-2-en-1-one] | 0.01 to 0.1 |
| CC(C)c1noc(/C=C/C(=O)N2CC[C@@H](N(C)c3nc(OC[C@@]45CCCN4C[C@H](F)C5)nc4c(F)c(-c5nc(N)ccc5C5CC5)ncc34)C2)n1 [Example 8, (E)-1-((R)-3-((7-(6-amino-3-cyclopropylpyridin-2-yl)-8-fluoro-2-(((2R,7aS)-2-fluorotetrahydro-1H-pyrrolizin-7a(5H)-yl)methoxy)pyrido[4,3-d]pyrimidin-4-yl)(methyl)amino)pyrrolidin-1-yl)-3-(3-isopropyl-1,2,4-oxadiazol-5-yl)prop-2-en-1-one] | 0.01 to 0.1 |
| C=CC(=O)N1CC(CN(C)c2nc(OCC34CCCN3CCC4)nc3c2C[C@H](C)[C@@H](c2nc(N)cc(C)c2C(F)(F)F)C3)C1 (single isomer, unassigned) [Example 50] | ≥ 0.5 |
| CN(CC1CN(C(=O)/C=C/CN2CCOCC2)C1)c1nc(OC[C@@]23CCCN2C[C@H](F)C3)nc2c(F)c(-c3nc(N)cc4cccc(Cl)c34)ncc12 [Example 84, (E)-1-(3-(((7-(3-amino-8-chloroisoquinolin-1-yl)-8-fluoro-2-(((2R,7aS)-2-fluorotetrahydro-1H-pyrrolizin-7a(5H)-yl)methoxy)pyrido[4,3-d]pyrimidin-4-yl)(methyl)amino)methyl)azetidin-1-yl)-4-morpholinobut-2-en-1-one] | 0.01 to 0.1 |
| CN(CC1CN(C(=O)/C=C/c2nc(C(C)(C)O)no2)C1)c1nc(OC[C@@]23CCCN2C[C@H](F)C3)nc2c(F)c(-c3nc(N)cc4cccc(Cl)c34)ncc12 [Example 151] | < 0.01 |
| Cc1noc(/C=C/C(=O)N2CC[C@@H](N(C)c3nc(OC[C@@]45CCCN4C[C@H](F)C5)nc4c3CC(C)C(c3nc(N)cc(C)c3C(F)(F)F)C4)C2)n1 (stereo partly drawn) [Example 115] | < 0.01 |
| Cc1cc(N)nc(N2CCc3c(nc(OC[C@@]45CCCN4C[C@H](F)C5)nc3N(C)[C@@H]3CCN(C#N)C3)C2)c1C(F)(F)F [Example 203] | ≥ 0.5 |
| C=CC(=O)N1CC[C@@H](N(C)c2nc(OC[C@@]34CCCN3C[C@H](F)C4)nc3c(F)c(-c4nc(N)cc(C)c4C4CC4)ncc23)C1 [Example 5, 1-((R)-3-((7-(6-amino-3-cyclopropyl-4-methylpyridin-2-yl)-8-fluoro-2-(((2R,7aS)-2-fluorotetrahydro-1H-pyrrolizin-7a(5H)-yl)methoxy)pyrido[4,3-d]pyrimidin-4-yl)(methyl)amino)pyrrolidin-1-yl)prop-2-en-1-one] | 0.1 to 0.5 |
| Cc1noc(/C=C/C(=O)N2CC[C@@H](N(C)c3nc(OC[C@@]45CCCN4C[C@H](F)C5)nc4c3CCN(c3nc(N)cc(C)c3C(F)(F)F)C4)C2)n1 [Example 95, (E)-1-((R)-3-((7-(6-amino-4-methyl-3-(trifluoromethyl)pyridin-2-yl)-2-(((2R,7aS)-2-fluorotetrahydro-1H-pyrrolizin-7a(5H)-yl)methoxy)-5,6,7,8-tetrahydropyrido[3,4-d]pyrimidin-4-yl)(methyl)amino)pyrrolidin-1-yl)-3-(3-methyl-1,2,4-oxadiazol-5-yl)prop-2-en-1-one] | ≥ 0.5 |
| Cc1noc(/C=C/C(=O)N2CC[C@@H](N(C)c3nc(OC[C@@]45CCCN4C[C@H](F)C5)nc4c3C[C@@H](C)[C@H](c3nc(N)cc(C)c3C(F)(F)F)C4)C2)n1 (single isomer, unassigned) [Example 57] | < 0.01 |
| Cc1cc(N)nc([C@@H]2Cc3nc(OC[C@@]45CCCN4C[C@H](F)C5)nc(N(C)CC4CN(C(=O)/C=C/c5nc(C(C)(C)O)no5)C4)c3C[C@H]2C)c1C(F)(F)F (single isomer, unassigned) [Example 162] | 0.01 to 0.1 |
| Cc1noc(/C=C/C(=O)N2CC[C@@H](N(C)c3nc(OC[C@@]45CCCN4C[C@H](F)C5)nc4c(F)c(-c5nc(N)cc6cccc(Cl)c56)ncc34)C2)n1 [Example 150, (E)-1-((R)-3-((7-(3-amino-8-chloroisoquinolin-1-yl)-8-fluoro-2-(((2R,7aS)-2-fluorotetrahydro-1H-pyrrolizin-7a(5H)-yl)methoxy)pyrido[4,3-d]pyrimidin-4-yl)(methyl)amino)pyrrolidin-1-yl)-3-(3-methyl-1,2,4-oxadiazol-5-yl)prop-2-en-1-one] | < 0.01 |
| C=CC(=O)N1CC[C@@H](N(C)c2nc(OC[C@@]34CCCN3C[C@H](F)C4)nc3c(F)c(-c4cccc(Cl)c4C(F)(F)F)ncc23)[C@H]1C [Example 217] | 0.01 to 0.1 |

Second part, the compound after the results:

| IC50 [µM] | SMILES |
| --- | --- |
| ≥ 0.5 | C=CC(=O)N1CC[C@@H](N(C)c2nc(OC[C@@]34CCCN3C[C@H](F)C4)nc3c(F)c(-c4nc(N)ccc4F)ncc23)C1 [Example 96, 1-((R)-3-((7-(6-amino-3-fluoropyridin-2-yl)-8-fluoro-2-(((2R,7aS)-2-fluorotetrahydro-1H-pyrrolizin-7a(5H)-yl)methoxy)pyrido[4,3-d]pyrimidin-4-yl)(methyl)amino)pyrrolidin-1-yl)prop-2-en-1-one] |
| ≥ 0.5 | C=CC(=O)N1CCC(N(C)c2nc(OC[C@@]34CCCN3C[C@H](F)C4)nc3c(F)c(-c4n[nH]c5cccc(Cl)c45)ncc23)C1 (stereo partly drawn) [Example 224] |
| ≥ 0.5 | C=CC(=O)N1CC[C@@H](N(C)c2nc(OC[C@@]34CCCN3C[C@H](F)C4)nc3c(F)c(-c4ccccc4C(F)F)ncc23)C1 [Example 181] |
| ≥ 0.5 | C=CC(=O)N1CC[C@@H](N(C)c2nc(OC[C@@]34CCCN3C[C@H](F)C4)nc3c(F)c(-c4c[nH]nc4C(F)(F)F)ncc23)C1 [Example 196] |
| < 0.01 | C=CC(=O)N1CC[C@@H](N(C)c2nc(OC[C@@]34CCCN3C[C@H](F)C4)nc3c(F)c(-c4cc(O)cc(Cl)c4C(F)(F)F)ncc23)C1 [Example 248] |
| ≥ 0.5 | C=CC(=O)N1CC[C@H](O)[C@@H](N(C)c2nc(OC[C@@]34CCCN3C[C@H](F)C4)nc3c(F)c(-c4cccc(Cl)c4C4CC4)ncc23)C1 [Example 237] |
